Source: paper PMC10535268, “Design, Synthesis, and Evaluation of Novel Indole Hybrid Chalcones and Their Antiproliferative and Antioxidant Activity” (Molecules, 2023)
Where “and” joins values, the source holds several entries; their conditions need not be identical. Equal values may be shown once.

What was measured:
[1] = Ferric reducing antioxidant power (FRAP); conditions: sample 1 mM, 30 min, gallic acid equivalents, mean (±SD), triplicate
Text: (§1) Table 3 Antioxidant activity.

[2] = DPPH radical scavenging activity; conditions: sample 1 mM; for DPPH: 30 min, gallic acid equivalents, mean (±SD), triplicate
[3] = ABTS radical scavenging activity; conditions: sample 1 mM, 30 min, gallic acid equivalents, mean (±SD), triplicate
Text: as §1

MCF-7 = assay: MTT antiproliferative assay, MCF-7; type: cell-based, human; conditions: mean ± SD of three independent experiments
MCF-10A = assay: MTT cytotoxicity assay, non-cancer MCF-10A; type: cell-based, human; conditions: 72 h incubation, mean ± SD of three independent experiments
MDA-MB-231 = assay: MTT antiproliferative assay, MDA-MB-231; type: cell-based, human; conditions: MDA-MB-231, 72 h incubation, mean ± SD of three independent experiments
Hela = assay: MTT antiproliferative assay, HeLa; type: cell-based, human; conditions: 72 h incubation, mean ± SD of three independent experiments
Procedure: Table 2 IC50 (μM) ± SD of tested compounds in different cell lines after 72 h incubation. | column: Cell Line, IC50 (µM) ± SD / Hela

Jurkat = assay: MTT antiproliferative assay, Jurkat; type: cell-based, human; conditions: 72 h incubation, mean ± SD of three independent experiments
HCT116 = assay: MTT antiproliferative assay, HCT116; type: cell-based, human; conditions: mean ± SD of three independent experiments
[4] = Homo sapiens, MCF7, 72 h, MCF-7, 72 h incubation
[5] = Homo sapiens, MCF7, MCF-7, 72 h incubation
[6] = Homo sapiens, HCT-116, HCT116, 72 h incubation
[7] = Homo sapiens, HCT-116, 72 h, HCT116, 72 h incubation

Row | SMILES | melting point [°C] | IC50 (MCF-7; MCF-7, 72 h incubation) [µM] | IC50 (Jurkat) | IC50 (HCT116; HCT116, 72 h incubation) [µM] | IC50 (MDA-MB-231) [µM] | IC50 (Hela) [µM] | FRAP [1] | DPPH [2] | ABTS [3] | IC50 (MCF-10A) [µM] | other results
1 | O=C(O)/C=C/c1ccc(O)c(O)c1 [caffeic acid, reference compound] | – | – | – | – | – | – | 500.0 (±33.5) µmol GAE/mmol | 690.7 (±36.6) µmol GAE/mmol | 586.0 (±32.8) µmol GAE/mmol | – | DPPH activity [2]: 690.7 ± 36.6 GAE/mmol
2 | O=C(/C=C/c1c[nH]c2ccccc12)c1ccccc1F [11a, (2E)-1-(2″-Fluorophenyl)-3-(1′H-indol-3′-yl)prop-2-en-1-one] | – | 37.1 ± 0.4 | < 8.3 µM and 7.6 µM | 31.8 ± 2.1 | 51.4 ± 3.2 | 41.7 ± 0.2 | 62.2 (±9.9) µmol GAE/mmol | 20.5 (±4.0) µmol GAE/mmol | 150.6 (±4.7) µmol GAE/mmol | 89.1 ± 2.4 | –
3 | Cn1cc(C(=O)/C=C/c2ccc(O)cc2)c2ccccc21 [17b, (2E)-3-(4-hydroxyphenyl)-1-(1-methyl-1H-indol-3-yl)prop-2-en-1-one] | 236 to 239 | – | – | – | – | – | 156.2 (±1.1) µmol GAE/mmol | 20.7 (±6.6) µmol GAE/mmol | 218.9 (±5.6) µmol GAE/mmol | – | IC50 (MCF-7; [5]): 50.3 ± 0.6 µM; IC50 (MCF-10A; Homo sapiens): 22.8 ± 0.4 µM; IC50 (HCT116; [6]): > 100 µM
4 | COc1cc(/C=C/C(=O)c2cn(C)c3ccccc23)ccc1O [19b, (2E)-3-(4-hydroxy-3-methoxyphenyl)-1-(1-methyl-1H-indol-3-yl)prop-2-en-1-one] | 170 to 172 | – | – | – | – | – | 262.2 (±14.2) µmol GAE/mmol | 225.6 (±14.7) µmol GAE/mmol | 410.7 (±28.9) µmol GAE/mmol | – | IC50 (MCF-7; [5]): 69.8 ± 1.1 µM; IC50 (MCF-10A; Homo sapiens): 28.9 ± 0.8 µM; IC50 (Hela; Homo sapiens): 34.9 ± 1.3 µM
5 | Cn1cc(C(=O)/C=C/c2ccc(O)c(O)c2)c2ccccc21 [18b, (2E)-3-(3,4-dihydroxyphenyl)-1-(1-methyl-1H-indol-3-yl)prop-2-en-1-one] | 210 to 214 | – | – | – | – | – | 564.8 (±2.2) µmol GAE/mmol | 589.1 (±8.9) µmol GAE/mmol | 487.3 (±43.9) µmol GAE/mmol | – | IC50 (MCF-7; [5]): 37.4 ± 2.2 µM; IC50 (MCF-10A; Homo sapiens): 7.8 ± 0.3 µM; IC50 (HCT116; [6]): 7.1 ± 0.7 µM; IC50 (Hela; Homo sapiens): 6.7 ± 0.8 µM
6 | CCCCOc1[nH]c2ccccc2c1/C=C/C(=O)c1ccccc1F [11h, (2E)-3-(2′-butoxy-1′H-indol-3′-yl)-1-(2″-fluorophenyl)prop-2-en-1-one] | – | 13.8 ± 3.5 | 35.9 ± 1.8 µM | 31 ± 2.9 | 36.3 ± 2.1 | 48.2 ± 1 | – | – | – | 65.5 ± 3.7 | –
7 | CCOc1[nH]c2ccccc2c1/C=C/C(=O)c1ccccc1F [11e, (2E)-3-(2′-ethoxy-1′H-indol-3′-yl)-1-(2″-fluorophenyl)prop-2-en-1-one] | – | 30.3 ± 2.2 | < 8.3 µM and 8.3 µM | 40.1 ± 0.6 | 72.2 ± 5.4 | 75.2 ± 4.1 | – | – | – | 94 ± 4.6 | –
8 | COn1cc(/C=C/C(=O)c2ccccc2F)c2ccccc21 [11c, (2E)-1-(2″-Fluorophenyl)-3-(1′-methoxy-1′H-indol-3′-yl)prop-2-en-1-one] | – | 20 ± 7.9 | < 8.3 µM and 5.9 µM | 37.9 ± 2.7 | 21.1 ± 3.9 | 19.2 ± 5.7 | 27.4 (±0.9) µmol GAE/mmol | 23.2 (±11.9) µmol GAE/mmol | 41.4 (±6.7) µmol GAE/mmol | 67 ± 2.9 | –
9 | Cn1cc(/C=C/C(=O)c2ccccc2F)c2ccccc21 [11b, (2E)-1-(2″-Fluorophenyl)-3-(1′-metyl-1′H-indol-3′-yl)prop-2-en-1-one] | – | 47.5 ± 4.3 | 32.4 ± 1.2 µM | 41.5 ± 1.7 | > 100 | 57.9 ± 0.4 | 47.2 (±1.0) µmol GAE/mmol | 18.9 (±2.3) µmol GAE/mmol | 5.7 (±2.7) µmol GAE/mmol | > 100 | –
10 | O=C(/C=C/c1c(OCCO)[nH]c2ccccc12)c1ccccc1F [11k, (2E)-1-(2-fluorophenyl)-3-[2-(2-hydroxyethoxy)-1H-indol-3-yl]prop-2-en-1-one] | 140 to 143 | – | – | – | – | – | – | – | – | – | IC50 (MCF-7; [4]): 38.1 ± 3.3 µM; IC50 (MCF-10A; Homo sapiens, MCF-10A, 72 h): 94.7 ± 2.6 µM; IC50 (Jurkat; Homo sapiens): 37.8 ± 0.9 µM; IC50 (HCT116; [7]): 39.4 ± 1.5 µM; IC50 (MDA-MB-231; Homo sapiens): 64.5 ± 4.7 µM; IC50 (Hela; Homo sapiens, HeLa, 72 h): 52.9 ± 1.6 µM
11 | COc1[nH]c2ccccc2c1/C=C/C(=O)c1ccccc1F [11d, (2E)-1-(2″-Fluorophenyl)-3-(2′-methoxy-1′H-indol-3′-yl)prop-2-en-1-one] | – | 32 ± 1.2 | 11.4 ± 1.9 µM | 45.5 ± 2.4 | 95.5 ± 2.7 | > 100 | – | – | – | 98 ± 1.3 | –
12 | O=C(O)/C=C/c1ccc(O)cc1 [p -coumaric acid, p-coumaric acid, reference compound] | – | – | – | – | – | – | 105.2 (±4.2) µmol GAE/mmol | 23.0 (±3.1) µmol GAE/mmol | 278.8 (±11.1) µmol GAE/mmol | – | –
13 | CC(C)Oc1[nH]c2ccccc2c1/C=C/C(=O)c1ccc(F)cc1 [11g, (2E)-1-(4″-Fluorophenyl)-3-(2′-isopropoxy-1′H-indol-3′-yl)prop-2-en-1-one] | – | 17.1 ± 2.3 | 36.7 ± 4.9 µM | 31.7 ± 1.7 | 33.3 ± 0.3 | 34.2 ± 0.1 | – | – | – | 41.8 ± 1.5 | –
14 | COCC(C)Oc1[nH]c2ccccc2c1/C=C/C(=O)c1ccccc1F (stereo not shown) [11j, (2E)-1-(2-fluorophenyl)-3-{2-[(1-methoxypropan-2-yl)oxy]-1H-indol-3-yl}prop-2-en-1-one] | – | – | – | – | – | – | – | – | – | – | IC50 (MCF-7; [4]): 26.2 ± 0.5 µM; IC50 (MCF-10A; Homo sapiens, MCF-10A, 72 h): 76.5 ± 1.1 µM; IC50 (Jurkat; Homo sapiens): 40.4 ± 2.1 µM; IC50 (HCT116; [7]): 32.4 ± 1.3 µM; IC50 (MDA-MB-231; Homo sapiens): 51.2 ± 4.1 µM; IC50 (Hela; Homo sapiens, HeLa, 72 h): 50 ± 1.8 µM
15 | CC(C)COc1[nH]c2ccccc2c1/C=C/C(=O)c1ccc(F)cc1 [11i, (2E)-3-(2′-isobutoxy-1′H-indol-3′-yl)-1-(4″-fluorophenyl)prop-2-en-1-one] | – | 30.7 ± 0.6 | 40.1 ± 3.2 µM | 33.8 ± 0.1 | 42.9 ± 0.4 | 54.6 ± 3.6 | – | – | – | 93.3 ± 3.4 | –

Second part, led by results:

Row | melting point [°C] | IC50 (MCF-7; MCF-7, 72 h incubation) [µM] | IC50 (Jurkat) | IC50 (HCT116; HCT116, 72 h incubation) [µM] | IC50 (MDA-MB-231) [µM] | IC50 (Hela) [µM] | SMILES | FRAP [1] | DPPH [2] | ABTS [3] | IC50 (MCF-10A) [µM] | other results
16 | 213 to 215 | – | – | – | – | – | COn1cc(C(=O)/C=C/c2ccc(O)cc2)c2ccccc21 [17c, (2E)-3-(4-hydroxyphenyl)-1-(1-methoxy-1H-indol-3-yl)prop-2-en-1-one] | 134.1 (±6.7) µmol GAE/mmol | 13.6 (±0.9) µmol GAE/mmol | 209.0 (±6.6) µmol GAE/mmol | – | IC50 (MCF-7; [4]): > 100 µM; IC50 (MCF-10A; Homo sapiens, MCF-10A, 72 h): > 100 µM; IC50 (MDA-MB-231; Homo sapiens): > 100 µM; IC50 (Hela; Homo sapiens, HeLa, 72 h): 39.8 ± 1.6 µM
17 | 155 to 156 | – | – | – | – | – | COc1cc(/C=C/C(=O)c2cn(OC)c3ccccc23)ccc1O [19c, (2E)-3-(4-hydroxy-3-methoxyphenyl)-1-(1-methoxy-1H-indol-3-yl)prop-2-en-1-one] | 296.2 (±10.4) µmol GAE/mmol | 207.7 (±8.6) µmol GAE/mmol | 456.0 (±24.6) µmol GAE/mmol | – | –
18 | 197 to 200 | – | – | – | – | – | O=C(/C=C/c1ccc(O)cc1)c1c[nH]c2ccccc12 [17a, (2E)-3-(4-hydroxyphenyl)-1-(1H-indol-3-yl)prop-2-en-1-one] | 161.6 (±5.7) µmol GAE/mmol | 16.0 (±1.1) µmol GAE/mmol | 227.6 (±5.4) µmol GAE/mmol | – | IC50 (MCF-7; [4]): 47.9 ± 0.2 µM; IC50 (MCF-10A; Homo sapiens, MCF-10A, 72 h): 28.6 ± 0.5 µM; IC50 (MDA-MB-231; Homo sapiens): 39.6 ± 2.1 µM; IC50 (Hela; Homo sapiens, HeLa, 72 h): 31.4 ± 2 µM
19 | 212 to 215 | – | – | – | – | – | O=C(/C=C/c1ccc(O)c(O)c1)c1c[nH]c2ccccc12 [18a, (2E)-3-(3,4-dihydroxyphenyl)-1-(1H-indol-3-yl)prop-2-en-1-one] | 480.9 (±28.8) µmol GAE/mmol | 520.1 (±6.9) µmol GAE/mmol | 401.2 (±39.2) µmol GAE/mmol | – | IC50 (MCF-7; [4]): 42.3 ± 3.3 µM; IC50 (MCF-10A; Homo sapiens, MCF-10A, 72 h): 11.5 ± 1.4 µM; IC50 (HCT116; [7]): 29.8 ± 0.7 µM; IC50 (MDA-MB-231; Homo sapiens): 39.3 ± 1.9 µM
